Where a name gives a salt, the structure may show the parent alone.
Key:
[1] = test system: norepinephrine (NE) uptake, cortical synaptosomes; assay: Synaptosomal uptake of 14C-l-norepinephrine (14C-NE) in rat cerebral cortex synaptosomes; assay type: biochemical, Male Sprague-Dawley rats; settings: for IC50: inhibition of norepinephrine uptake in vitro, concentration needed to inhibit 50%; for percent inhibition NE (numbers in parentheses): at 1000 nM, compounds which failed to achieve 50% inhibition by that concentration
Procedure: (§1) This general procedure is set forth by Wong et al., in Drug Development Research 6:397-403 (1985).
(§2) Male Sprague-Dawley rats (110-150 g) from Harlan Industries (Cumberland, Id.) were fed a Purina Chow ad libitum for at least 3 days before being used in the studies. Rats were killed by decapitation. Whole brains were removed and dissected. Cerebral cortex was homogenized in 9 volumes of a medium containing 0.32M sucrose and 10 mM glucose. Crude synaptosomal preparations were isolated after differential centrifugation at 1,000 g for 10 min. and 17,000 g for 28 min. The final pellets were suspended in the same medium and kept in ice until use within the same day.
(§3) Synaptosomal uptake of ^3 H-serotonin(^3 H-5-hydroxytryptamine, ^3 H-5HT) and ^14 C-l-norepinephrine (^14 C-NE) was determined as follows. Cortical synaptosomes (equivalent to 1 mg of protein) were incubated at 37° C. for 5 min in 1 ml of Krebs-bicarbonate medium containing also 10 mM glucose, 0.1 mM iproniazid, 1 mM ascorbic acid, 0.17 mM EDTA, […] and 100 nM^14 C-NE. The reaction mixture was immediately diluted with 2 ml of ice-chilled Krebs-bicarbonate buffer and filtered under vacuum with a cell harvester (Brandel, Gaithersburg, Md.). Filters were rinsed twice with approximately 5 ml of ice-chilled 0.9% saline and were transferred to a counting vial containing 10 ml of scintillation fluid (PCS, Amersham, Arlington Heights, Ill.). Radioactivity was measured by a liquid scintillation spectrophotometer. Accumulation of ^3 H-5HT and ^14 C-NE at 4° C. represented the background and was subtracted from all samples.

[2] = test system: serotonin (5HT) uptake, cortical synaptosomes; assay: Synaptosomal uptake of 3H-serotonin (3H-5HT) in rat cerebral cortex synaptosomes; assay type: biochemical, Male Sprague-Dawley rats; settings: for IC50: inhibition of 5HT uptake in vitro, concentration needed to inhibit 50%; for percent inhibition 5HT (numbers in parentheses): at 1000 nM, compounds which failed to achieve 50% inhibition by that concentration
Procedure: as §1, §2, §3

[3] = test system: serotonin (5-hydroxytryptamine) uptake; settings: hydrochloride salt; cited from earlier work
norepinephrine uptake = settings: hydrochloride; cited from earlier work

Compound | IC50 [1] [µM] | IC50 [2] [µM] | percent inhibition NE (numbers in parentheses) [1] [%] | further results
CNCCC(Sc1cccs1)c1ccccc1 (stereo not shown) [Example 6, N-Methyl-3-(2-thienylthio)benzenepropanamine hydrochloride] | 0.048 | 1 | – | –
CNCCC(Sc1ccccc1OC)c1ccccc1 (stereo not shown) [Example 1, N-Methyl-3-[(2-methoxyphenyl)thio]benzenepropanamine hydrochloride] | 0.042 | 0.27 | – | –
CNCCC(c1ccccc1)[S+]([O-])c1ccc(C(F)(F)F)cc1 (stereo not shown) [Example 4, hydrochloride] | – | – | 6 | percent inhibition 5HT (numbers in parentheses) [2]: 23%
CNCCC(Oc1ccc(C(F)(F)F)cc1)c1ccccc1 (racemic) [fluoxetine, dl-N-methyl-γ-[4-(trifluoromethyl)phenoxy]benzenepropanamine] | – | – | – | selective serotonin uptake inhibition (in words) [3]: selective serotonin (5-hydroxytryptamine) uptake inhibitor
CNCCC(Sc1ccc(C)s1)c1ccccc1 (stereo not shown) [Example 7, N-Methyl-3-[(5-methyl-2-thienyl)thio]benzenepropanamine hydrochloride] | 0.3 | 1 | – | –
CNCCC(c1ccccc1)S(=O)(=O)c1ccc(C(F)(F)F)cc1 (stereo not shown) [Example 5, N-Methyl-3-[[4-(trifluoromethyl)phenyl]sulfonyl]benzenepropanamine hydrochloride] | – | – | 1 | percent inhibition 5HT (numbers in parentheses) [2]: 5%
CNCCC(Sc1ccccc1C)c1ccccc1 (stereo not shown) [Example 2, hydrochloride] | 0.08 | 0.165 | – | –
CNCCC(Oc1ccccc1C)c1ccccc1.Cl (single isomer, unassigned; (-)) [tomoxetine hydrochloride, (-)-N-methyl-γ-(2-methylphenoxy)benzenepropanamine hydrochloride] | – | – | – | selective norepinephrine uptake inhibition (in words) (norepinephrine uptake): selective inhibitor of norepinephrine uptake
CNCCC(Sc1ccc(C(F)(F)F)cc1)c1ccccc1 (stereo not shown) [Example 3, N-Methyl-3-[[4-(trifluoromethyl)phenyl]thio]benzenepropanamine hydrochloride] | – | 0.11 | 11 | –

From patent US4902710A, “Serotonin and norepinephrine uptake inhibitors” (Eli Lilly and Company, priority 1988, dated 1990)
